Results from patent publication US4861897A, “2-Aryloxyalkylaminobenzoxazoles and 2-aryloxyalkylaminobenzothiazoles” (Ortho Pharmaceutical Corporation, priority 1987, dated 1989).

Tests used:
[1] = tested on: histamine stimulated parietal cell; assay: Isolated parietal cell assay, inhibition of 14C-aminopyrine accumulation, histamine stimulated; format: cell-based, rabbit; conditions: Oryctolagus cuniculus, 20 min, Example 48, 37° C., read-out: IC50 vhist (inhibition of 14C-AP accumulation in histamine stimulated parietal cell)
Method: (§1) Isolated Parietal Cell Assay
(§2) The isolated parietal cell assay was conducted using the procedures of Batzri, S. et al., Biochemica et Biophysica Acta 508, 328 (1978) and Soll, A. H. Am. J. Physiol. 238, G366 (1980). Basically, parietal cells were isolated from the fundic mucosa of rabbit stomachs by a four-stage collagenase digestion process. The supernatant fractions from the last two stages of this process contain the individual parietal cells. This cell suspension was centrifuged and reconstituted in a modified Hank's buffer to contain 1-2×10^6 cells/ml. […] This accumulation was stimulated by histamine and was blocked by H2 antagonists. The cells were incubated with 0.4-0.5×10^6 cpm ^14 C-AP, with various concentrations of histamine as a stimulant, 1×10^-5 M isobutylmethylxanthine, and the test compound added in a 20 μl volume of buffer or DMSO. The flasks were incubated in a shaking water bath at 37° C. for 20 minutes. Two aliquots were then taken from each flask and cell pellets were collected by centrifugation. The pellets were solubilized with Protosol (New England Nuclear) and radioactivity determined by liquid scintillation spectrometry. Data is presented as the IC50 vhist, the concentration of compound required to inhibit ^14 C-AP accumulation in the histamine stimulated parietal cell by 50%. When dibutyryl cAMP was used to stimulate the cells instead of histamine, a similar inhibition of ^14 C-AP accumulation was measured and the data are presented as the IC50 vcAMP, the concentration required to inhibit ^14 C-AP accumulation in the cAMP stimulated parietal cells by 50%.

acid output = assay: Gastric secretion, acid output in pylorus ligated rats; format: in vivo, male Charles River Sprague Dawley derived rats; conditions: Example 50, i.d. or s.c., four hours after pylorus ligation, compared to control; for % Acid Secreted at mpK: @ 10 mpK; for response vs control in vivo at 20 mg/kg: @ 20 mpK; for response vs control in vivo at 40 mg/kg: @ 40 mpK
Method: The inhibitory activity of the compounds on acid output was tested using pylorus ligation in a modification of the procedure of Shay, H. et al., Gastroenterology 26, 906 (1954). Basically, male Charles River Sprague Dawley derived rats weighing 150-300 grams were deprived of food but not water for 18-24 hours prior to use. Water was withheld during the experiment, however. The rats were weighed, anesthetized with ether and the pylorus ligated according to the method of Shay et al., supra. Treatment or vehicle control was then administered intraduodenally (i.d.) or subcutaneously (s.c.). Rats were housed two/cage and sacrificed with CO2 four hours after ligation. The stomachs were removed, rinsed, and contents emptied into a graduated centrifuge tube. The tubes were centrifuged, the volume of gastric juice recorded, and any samples obviously contaminated by feces, food or blood were eliminated. A 1 ml aliquot of gastric juice was titrated with 0.1N NaOH to a pH of 7.0-7.4. The volume of gastric juice secreted, the acid concentration, and the product of the volume times the concentration, i.e., the total amount of acid secreted, were measured.

[2] = tested on: cAMP stimulated parietal cells; assay: Isolated parietal cell assay, inhibition of 14C-aminopyrine accumulation, dibutyryl cAMP stimulated; format: cell-based, rabbit; conditions: Oryctolagus cuniculus, 20 min, Example 48, 37° C., read-out: IC50 vcAMP (inhibition of 14C-AP accumulation in cAMP stimulated parietal cells)
Method: as §1, §2

[3] = biological target: T1, parietal cell H^+ K^+ ATPase (Oryctolagus cuniculus, UniProt P27112); assay: Inhibition of parietal cell H+ K+ ATPase; format: biochemical, New Zealand white rabbits; conditions: Example 49; for inhibition at 100 µM: @ 10^-4 M, read-out: % Inhibition at Concentration (H+ K+ ATPase); for IC50: given as "50% @ x μM", read-out: % Inhibition at Concentration (H+ K+ ATPase): concentration given for 50% inhibition
T1 construct: determined in fundic mucosa from New Zealand white rabbits which were homogenized; from tissue; host or cells: fundic mucosa of New Zealand white rabbits, homogenized; membrane protein
Method: Inhibition of Parietal Cell H^+ K^+ ATPase
The activity was measured in a 1 ml incubation volume containing 50 mM Tris pH 7.4, 2 mM MgCl2, 2 mM Na2 ATP, with or without 20 mM KCl and vehicle control (dimethylsulfoxide) or test compound added in a 0.02 ml volume. Typically, 20-50 μg membrane protein was added and the tubes were preincubated with test compound for 10 minutes at 37° C. Substrate, Na2 ATP, was then added and the tubes were incubated for another 15 minutes at 37° C. The reaction was stopped by the addition of 1 ml 14% trichloroacetic acid and the samples were centrifuged at 2,000 xg for 10 minutes. The amount of inorganic phosphate present in an aliquot of supernatant was determined. H^+ K^+ ATPase activity was determined after correcting for the basal (Mg^++ only) enzyme activity present in the membrane preparation.

[4] = Rattus norvegicus, 4 h, read-out: % Acid Secreted at mpK

T1 sequence (P27112 2-1035 limits assumed): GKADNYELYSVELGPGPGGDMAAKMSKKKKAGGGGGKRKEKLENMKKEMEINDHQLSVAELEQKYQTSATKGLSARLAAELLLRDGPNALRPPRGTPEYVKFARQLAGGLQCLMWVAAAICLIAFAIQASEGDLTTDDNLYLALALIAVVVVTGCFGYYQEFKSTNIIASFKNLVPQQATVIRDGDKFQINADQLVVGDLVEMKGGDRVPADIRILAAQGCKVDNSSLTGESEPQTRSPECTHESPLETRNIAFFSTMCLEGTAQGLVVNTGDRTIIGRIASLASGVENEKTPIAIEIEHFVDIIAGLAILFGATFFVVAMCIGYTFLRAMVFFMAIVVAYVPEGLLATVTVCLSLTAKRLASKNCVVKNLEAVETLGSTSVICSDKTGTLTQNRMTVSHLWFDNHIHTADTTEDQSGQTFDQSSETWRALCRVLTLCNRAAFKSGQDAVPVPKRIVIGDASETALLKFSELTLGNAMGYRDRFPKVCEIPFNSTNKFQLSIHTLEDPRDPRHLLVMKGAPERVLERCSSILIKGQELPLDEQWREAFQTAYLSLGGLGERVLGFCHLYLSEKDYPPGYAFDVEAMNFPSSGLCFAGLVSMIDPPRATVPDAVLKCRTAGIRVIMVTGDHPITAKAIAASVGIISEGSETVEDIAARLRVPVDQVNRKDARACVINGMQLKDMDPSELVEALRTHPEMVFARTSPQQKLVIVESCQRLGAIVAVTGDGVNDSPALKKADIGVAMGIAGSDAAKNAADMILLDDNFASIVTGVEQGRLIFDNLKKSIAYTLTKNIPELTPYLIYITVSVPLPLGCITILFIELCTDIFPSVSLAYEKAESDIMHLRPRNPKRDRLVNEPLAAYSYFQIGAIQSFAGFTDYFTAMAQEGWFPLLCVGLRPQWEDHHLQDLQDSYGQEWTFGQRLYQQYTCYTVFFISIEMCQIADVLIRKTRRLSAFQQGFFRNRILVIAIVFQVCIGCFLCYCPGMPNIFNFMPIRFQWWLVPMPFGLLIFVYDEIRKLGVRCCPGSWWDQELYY
T1 sequence (P18597 whole entry partner): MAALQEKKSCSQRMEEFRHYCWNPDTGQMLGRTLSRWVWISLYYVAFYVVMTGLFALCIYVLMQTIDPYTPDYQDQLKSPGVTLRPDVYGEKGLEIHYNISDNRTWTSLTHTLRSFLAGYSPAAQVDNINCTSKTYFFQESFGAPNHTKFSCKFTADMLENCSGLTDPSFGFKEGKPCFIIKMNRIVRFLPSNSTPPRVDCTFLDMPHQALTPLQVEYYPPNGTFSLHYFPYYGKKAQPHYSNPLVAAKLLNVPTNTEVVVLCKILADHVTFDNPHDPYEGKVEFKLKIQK

| IC50 [1] | IC50 [2] | inhibition at 100 µM [3] | IC50 [3] | Compound | % Acid Secreted at mpK (acid output) | response vs control in vivo at 5 mg/kg (acid output; Rattus norvegicus, 4 h, @ 5 mpK, read-out: % Acid Secreted at mpK) | response vs control in vivo at 20 mg/kg (acid output; [4]) | response vs control in vivo at 40 mg/kg (acid output; [4]) |
| --- | --- | --- | --- | --- | --- | --- | --- | --- |
| 270 nM | 140 nM | 49% |  | CCCCN(CCCC)CCCOc1cccc(/C=C/c2nc3ccccc3o2)c1 [Example 1] | 52% | 44% | 78% |  |
| 1200 nM | 410 nM |  | 94 µM | CN1CCN(CCCOc2cccc(/C=C/c3nc4ccccc4o3)c2)CC1 [Example 2, (E)-2-[2-[3-[3-(4-Methylpiperazino)propoxy]phenyl]ethenyl]benzoxazole] |  |  | 9% |  |
| 200 nM | 240 nM |  | 29 µM | CCCN(CCC)CCCOc1cccc(/C=C/c2nc3ccccc3o2)c1 [Example 3, (E)-2-[2-(3-Dipropylaminopropoxyphenyl)ethyenyl]benzoxazole] |  |  | 49% |  |
| 210 nM | 340 nM |  | 10 µM | C(=C\c1nc2ccccc2o1)/c1cccc(OCCCn2ccnc2)c1 [Example 4] |  |  | 38% |  |
| 150 nM | 150 nM | 17% |  | CCCCN(CCCC)CCCOc1ccc(/C=C/c2nc3ccccc3o2)cc1 [Example 8, (E)-2-[2-(4-Dibutylaminopropoxyphenyl)ethenyl]benzoxazole] | 44% |  |  | 96% |
| 290 nM | 250 nM |  | 64 µM | C(=C\c1nc2ccccc2o1)/c1ccc(OCCCn2ccnc2)cc1 [Example 10, (E)-2-[2-(4-(1H-Imidazol-1-yl)propoxyphenyl)ethenyl]benzoxazole] |  |  | 26% |  |
| 260 nM | 210 nM |  |  | CCCN(CCC)CCCOc1ccc(/C=C/c2nc3ccccc3s2)cc1 [Example 29, (E)-2-[2-(4-Dipropylaminopropoxyphenyl)ethenyl]benzothiazole] |  |  | 30% |  |
| 250 nM | 2600 nM |  | 18 µM | CCCCN(CCCC)CCCOc1ccc(-c2nc3ccccc3s2)cc1 [Example 43, 2-(4-Dibutylaminopropoxyphenyl)benzothiazole] |  |  |  |  |

The remaining lines, values behind:

| Compound | IC50 [1] | IC50 [2] | inhibition at 100 µM [3] | IC50 [3] | % Acid Secreted at mpK (acid output) | response vs control in vivo at 5 mg/kg (acid output; Rattus norvegicus, 4 h, @ 5 mpK, read-out: % Acid Secreted at mpK) | response vs control in vivo at 20 mg/kg (acid output; [4]) | response vs control in vivo at 40 mg/kg (acid output; [4]) |
| --- | --- | --- | --- | --- | --- | --- | --- | --- |
| CCCN(CCC)CCCCOc1cccc(/C=C/c2nc3ccccc3o2)c1 [Example 5] | 120 nM | 310 nM |  | 14 µM | 25% |  | 74% |  |
| C(=C\c1nc2ccccc2o1)/c1cccc(OCCCCn2ccnc2)c1 [Example 6] | 280 nM | 230 nM |  | 13 µM |  |  | 45% |  |
| COc1ccc2nc(/C=C/c3cccc(OCCCCn4ccnc4)c3)oc2c1 [Example 7, (E)-2-[2-(3-(1H-Imidazol-1-yl)butoxyphenyl)ethenyl]-6-methoxybenzoxazole] | 120 nM | 180 nM |  | 74 µM |  |  |  |  |
| CCCN(CCC)CCCOc1ccc(/C=C/c2nc3ccccc3o2)cc1 [Example 9, (E)-2-[2-(4-Dipropylaminopropoxyphenyl)ethenyl]benzoxazole] | 220 nM | 350 nM |  | 25 µM | 29% |  | 77% | 97% |
| CCN(CC)CCCOc1ccc(/C=C/c2nc3ccccc3s2)cc1 [Example 30, (E)-2-[2-(4-Diethylaminopropoxyphenyl)ethenyl]benzothiazole] | 370 nM | 150 nM |  |  |  |  |  | 71% |
| C(=C\c1nc2ccccc2s1)/c1ccc(OCCCn2ccnc2)cc1 [Example 32, (E)-2-[2-(4-(1H-Imidazol-1-yl)propoxyphenyl)ethenyl]benzothiazole] | 130 nM | 340 nM |  |  |  |  | 22% |  |
| C(=C\c1nc2ccccc2s1)/c1ccc(OCCCCn2ccnc2)cc1 [Example 40, (E)-2-[2-(4-(1H-Imidazol-1-yl)butoxyphenyl)ethenyl]benzothiazole] | 200 nM | 260 nM |  |  |  |  |  | 17% |
